Data: US20170247693A1 (priority 2016, published 2017)

Tested on: HepG2 cells
Settings: normoxia

COc1cccc2c1C(=O)c1c(O)c3c(c(O)c1C2=O)C[C@@](O)(C(=O)CO)C[C@@H]3O[C@H]1C[C@H](N)[C@H](O)[C@H](C)O1 [DOX, Doxorubicin]
minimal concentration that diminished the growth of the treated cells (HepG2): 1 μm | decrease of cell viability (HepG2 infected with vACE-NT, 72 h after administering DOX (1 μm)): 27%
